Assay results: US12433860B2, “Treatment of multiple sclerosis comprising DHODH inhibitors” (Immunic AG, priority 2021, dated 2025)
Where “and” joins values, the source holds several entries; their conditions need not be identical. Identical values can stand only once. Counter-ions that a name gives are not always drawn.

Columns and labels:
[1] = test system: patients with relapsing-remitting multiple sclerosis; assay: EMPhASIS phase 2 trial Cohort 1: MRI lesions up to 24 weeks; type: in vivo, human
Experimental: Study design and participants: […] Eligible patients were randomly assigned in a 1:1:1 ratio by an interactive web response system to receive once-daily vidofludimus calcium (30 mg or 45 mg) or placebo over a 24 week period. Procedures: Participants took vidofludimus calcium (30 mg or 45 mg) or placebo once daily in the morning in a fasted state (before breakfast) for 24 weeks. To minimize the risk of changes to uric acid during the first seven days of dosing (induction phase), the assigned dose (containing vidofludimus calcium 15 mg, vidofludimus calcium 22.5 mg or placebo) was taken days 0-6 and then the full dose thereafter (maintenance phase). Participants underwent standardized brain MRI scans at baseline and every 6 weeks after the first day of dosing until week 24. MRI scans were centrally analyzed by a blinded and independent MRI center. […] In the case of suspected or protocol-defined confirmed relapse, corticosteroid treatment was provided at the discretion of the investigator. Pharmacokinetic and pharmacodynamic measurements were also collected. Outcomes: The primary endpoint was the difference in the cumulative number of combined unique active (CUA) lesions up to week 24 between vidofludimus calcium 45 mg and placebo in the intention-to-treat population (i.e., weeks 6 to 24). The key secondary was the same outcome between vidofludimus calcium 30 mg and placebo. A sensitivity analysis of the primary endpoint and key secondary endpoint was done in the per-protocol population and the modified intention-to-treat population. In addition, prespecified subgroup analyses of the primary endpoint and key secondary endpoint in the intention-to-treat population were done based on baseline demographics (gender, age, weight, country), MRI characteristics (gadolinium-enhancing lesions strata) and clinical characteristics (EDSS score, duration of disease and relapse history). […] Other secondary endpoints included: the difference in the cumulative number of combined unique active lesions up to week 24 between vidofludimus calcium 45 mg and vidofludimus calcium 30 mg; number or cumulative number of gadolinium-enhancing, T1, or T2 lesions up to 24 weeks; annualized relapse rate from baseline until week 24; proportion of relapse-free patients up to week 24; time-to-first relapse; change in EDSS score from baseline; proportion of patients with EDSS score progression; brain atrophy and other MRI endpoints; and safety and tolerability as assessed by the investigators. Annualized relapse rate was defined as the total number of confirmed relapses divided by the real exposure time in years assessed over the time during the double-blind treatment period. EDSS progression was defined as an increase compared to baseline of at least 1.0 point for patients with a baseline EDSS score of 1.0 to 4.0 or of at least 1.5 points for patients with a baseline EDSS score of 0. Vidofludimus calcium trough concentrations (weeks 6 and 24) were used to assess the correlation between pharmacokinetics and MRI-based assessments. The effects of vidofludimus calcium on serum neurofilament (baseline and week 24) were also analyzed. Statistical analysis: The primary and secondary efficacy endpoints were analyzed using a generalized linear model with a negative binomial distribution and a logarithmic link function. Independent effects included in the model were: treatment group; baseline volume of T2 lesions; MRI field strength; and baseline number of gadolinium-enhancing lesions. The natural log transformation of the time from the first dose to the date of the last MRI assessment was included as an offset term to account for different lengths of treatment.

[2] = Pre-clinical, clinical and single and multiple-dose Phase 1 studies: safe daily dose; type: in vivo; conditions: once daily
[3] = test system: patients with RRMS and evidence of active disease; assay: EMPhASIS Cohort 2 interim analysis: MRI lesions up to Week 12; type: in vivo, human; conditions: for Cumulative number of New Gd+ lesions up to Week 12, Mean / Cumulative number of CUA MRI lesions up to Week 12, Mean / Patients without CUA MRI lesions over 12 weeks / Patients without New Gd+ lesions over 12 weeks: mFAS; for Cumulative number of New Gd+ lesions up to Week 12, Mean: placebo 3.5; for Cumulative number of CUA MRI lesions up to Week 12, Mean: placebo 4.4; for Patients without CUA MRI lesions over 12 weeks: placebo 41.4; for Patients without CUA MRI lesions over 12 weeks / Patients without New Gd+ lesions over 12 weeks: listed as IMU-838; for Patients without New Gd+ lesions over 12 weeks: placebo 49.3
human DHODH = human DHODH (Homo sapiens, UniProt Q02127); conditions: cited from earlier work
[4] = test system: secretion of interleukin (IL)-17 and IFNγ; conditions: in vitro; cited from earlier work

human DHODH, sequence (Q02127 whole entry): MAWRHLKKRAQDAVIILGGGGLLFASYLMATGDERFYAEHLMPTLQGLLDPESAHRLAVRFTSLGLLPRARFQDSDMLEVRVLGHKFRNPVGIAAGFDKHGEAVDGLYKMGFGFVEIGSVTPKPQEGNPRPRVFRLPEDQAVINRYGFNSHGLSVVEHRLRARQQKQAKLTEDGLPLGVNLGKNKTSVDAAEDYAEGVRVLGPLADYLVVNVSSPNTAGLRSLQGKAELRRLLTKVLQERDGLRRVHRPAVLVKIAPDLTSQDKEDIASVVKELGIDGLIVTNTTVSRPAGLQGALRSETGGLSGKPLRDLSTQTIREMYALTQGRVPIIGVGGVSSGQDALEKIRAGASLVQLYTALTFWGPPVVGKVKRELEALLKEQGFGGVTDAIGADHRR

COc1cccc(-c2ccc(NC(=O)C3=C(C(=O)O)CCC3)c(F)c2)c1 [vidofludimus calcium, 1-cyclopentene-1-carboxylic acid, 2-(((3-fluoro-3′-methoxy(1,1′-biphenyl)-4-yl)amino)carbonyl)-, calcium salt (2:1)]
suppression of MRI activity ([1]; 30 mg dose, after 24-weeks of treatment, rrMS): 70% | cumulative number of new gadolinium-enhancing lesions at week 24 ([1]; 30 mg once daily): 4.5 (95% Cl 2.7-7.7) | Cumulative CUA lesions up to 24 weeks, adjusted mean (95% CI) ([1]; 30 mg once daily, key secondary endpoint analysis (30 mg vs placebo), intention-to-treat): 4.0 (2.2-7.2) | Cumulative CUA lesions up to 24 weeks, adjusted mean (95% CI) ([1]; 30 mg once daily, secondary endpoint analysis (45 mg vs 30 mg), intention-to-treat): 4.2 (2.5-7.1) | Rate ratio, cumulative CUA lesions up to 24 weeks ([1]; 30 mg vs placebo, intention-to-treat): 0.30 | cumulative number of new gadolinium-enhancing lesions at week 24 ([1]; 45 mg once daily): 4.0 (95% Cl 2.1-7.8) | Cumulative CUA lesions up to 24 weeks, adjusted mean (95% CI) ([1]; 45 mg once daily, primary endpoint analysis (45 mg vs placebo), intention-to-treat): 2.4 (1.1-4.9) | Cumulative CUA lesions up to 24 weeks, adjusted mean (95% CI) ([1]; 45 mg once daily, secondary endpoint analysis (45 mg vs 30 mg), intention-to-treat): 4.4 (2.4-8.1) | Rate ratio, cumulative CUA lesions up to 24 weeks ([1]; 45 mg vs placebo, intention-to-treat): 0.38 | Rate ratio, cumulative CUA lesions up to 24 weeks ([1]; secondary endpoint (45 mg vs 30 mg), printed in the 30 mg line): 0.96 | daily dose considered safe [2]: up to 50 mg | suppression of Gd+ lesions at Week 12 compared with placebo ([3]; 10 mg): 40% | Cumulative number of New Gd+ lesions up to Week 12, Mean ([3]; 10 mg (C2)): 2.0 | suppression of CUA lesions at Week 12 compared with placebo ([3]; 30 mg): 68% | suppression of Gd+ lesions at Week 12 compared with placebo ([3]; 30 mg): 66% | Cumulative number of New Gd+ lesions up to Week 12, Mean ([3]; 30 mg (C1)): 1.2 | Cumulative number of CUA MRI lesions up to Week 12, Mean ([3]; 30 mg (C1)): 1.4 | Patients without CUA MRI lesions over 12 weeks ([3]; 30 mg (C1)): 62% and 61.5% | Patients without New Gd+ lesions over 12 weeks ([3]; 30 mg (C1)): 66% and 66.2% | suppression of CUA lesions at Week 12 compared with placebo ([3]; 45 mg): 75% | suppression of Gd+ lesions at Week 12 compared with placebo ([3]; 45 mg): 74% | Cumulative number of New Gd+ lesions up to Week 12, Mean ([3]; 45 mg (C1)): 0.9 | Cumulative number of CUA MRI lesions up to Week 12, Mean ([3]; 45 mg (C1)): 1.1 | Patients without CUA MRI lesions over 12 weeks ([3]; 45 mg (C1)): 55% and 54.5% | Patients without New Gd+ lesions over 12 weeks ([3]; 45 mg (C1)): 61% and 60.6% | potency against human DHODH (human DHODH): submicromolar potency | secretion of interleukin (IL)-17 and IFNγ [4]: inhibited
